Tests used:
Pimephales promelas = experiment: 96 h LC50 (-log10 mol/L); higher = more toxic
Daphnia magna = experiment: 48 h LC50 (-log10 mol/L); higher = more toxic
Tetrahymena pyriformis = experiment: 48 h IGC50 (-log10 mol/L); higher = more toxic

SMILES | 96 h LC50 (-log10 mol/L) (Pimephales promelas) | 48 h LC50 (-log10 mol/L) (Daphnia magna) | 48 h IGC50 (-log10 mol/L) (Tetrahymena pyriformis)
CNc1ccccc1 | 3.03 | 5.79 | 3.06
Clc1ccccc1 | 3.65 | 3.92 | 2.87
O=[N+]([O-])c1ccc(O)c([N+](=O)[O-])c1 | 4.22 | 4.61 | 4.06
CCc1ccc(C)nc1 | 3.17 | 3.48 | 2.82
O=[N+]([O-])c1ccccc1O | 2.94 | 4.02 | 3.67

— EPA's aquatic toxicity sets
